Data from patent US10502749B1, “Method for patient stratification and drug efficacy monitoring” (New York University, priority 2016, dated 2019).

Key:
[1] = system: FXS model mice; settings: cited from earlier work
[2] = system: FXS model mice; settings: cited from earlier work; remark: listed apart in the source
[3] = system: FXS model mice; settings: cited from earlier work; remark: listed apart in the source
[4] = system: Ras, dynamin, Grin2B, and mGlur5; experiment: Western blot of candidate proteins in brains of FXS and WT littermates after chronic S6K1 inhibitor treatment; format: in vivo, mouse; settings: for Expression of candidate proteins (Ras, dynamin, Grin2B, mGlur5) in brain after treatment: FXS model mice, chronic treatment, 25 mg/kg i.p. daily for 10 days, western blot, 25 mg/kg
Procedure: (§1) PF-4708671 was obtained from Sigma, Mo., USA. Littermate matched mice underwent 10 days of daily 25 mg/kg intraperitoneal injections of PF-4708671 in a vehicle consisting of saline +5% v/v of Tween-80 (Sigma). On day 10, 90 mins after the final injection mice were killed by cervical dislocation and the hippocampus was quickly dissected to yield whole hippocampal lysates. Simultaneously, trunk blood also was collected to monitor peripheral levels of proteins.
Thus, the candidates correlate with improved behavior in the brain. We therefore evaluated if they could be measured and quantified in a peripheral tissue such as blood. Animals were treated as described above with PF-4708671, then animals were euthanized via cervical dislocation and brain tissue was collected on ice and snap frozen. Lysates were then prepared as previously described (Bhattacharya et al, 2016, incorporated herein by reference) and analyzed by western blot.
Brain tissues were obtained immediately following euthanasia, snap frozen and homogenized in lysis buffer containing protease and phosphatase inhibitors. Lysates were then analyzed using Western blotting and the levels of specific candidates was determined using densitometry and comparing them to a known loading control such as actin, Gapdh or transferrin receptor.

[5] = system: FXS model mice; settings: cited from earlier work; remark: listed apart in the source
[6] = system: Ras; experiment: Concentration levels of mGluR and Ras in mouse trunk blood after 10 days of treatment; format: in vivo
Procedure: as §1
FXS or wild type mice were treated with an S6K1 inhibitor, PF-4708671 (S6Ki) for 10 days. Concentration levels of the two markers—mGluR and Ras in mouse trunk blood treated with vehicle or the S6Ki were determined. N=3 animals per treatment per genotype were used. Statistical analyses was done using two-way ANOVA (genotype×treatment). P=0.0079 for interaction and p=0.019 for FXS±S6Ki and p=0.16 for WT±S6Ki.

Which results are given for `CCc1cncnc1N1CCN(Cc2nc3ccc(C(F)(F)F)cc3[nH]2)CC1` [PF-4708671]?
Increased protein synthesis, rescued by S6K1i [1]: Both inhibitors rescued; Aberrant social novelty behavior, rescued by S6K1i [2]: Both inhibitors rescued; Aberrant spine morphology, rescued by S6K1i [3]: Both inhibitors rescued; Ras in the brain of FXS mice after S6K1 inhibitor ([4]; FXS mice, brain, FIG. 3): does not change; Expression of candidate proteins (Ras, dynamin, Grin2B, mGlur5) in brain after treatment [4]: rescues expression of 3 protein candidates in brain; Expression of candidate proteins (Ras, dynamin, Grin2B, mGlur5) in brain after treatment ([4]; listed as S6K1 inhibitor): 3 out of 4 are statistically improved; Aberrant y-maze reversal learning, rescued by S6K1i [5]: Both inhibitors rescued; Ras level in trunk blood, greater than WT veh ([6]; FXS mice, vehicle 10 days (printed as FXS+veh)): 31%; Ras level in trunk blood, average (+/-SD) ([6]; FXS mice, vehicle 10 days, N=3 (printed as FXS+veh)): 1.19±0.21; Candidate proteins (mGluR, Ras) in FXS model mouse blood rescued by treatment ([6]; FXS model mice, trunk blood, 10 days, listed as S6K1 inhibitor): one was rescued; Ras level in trunk blood, less from WT veh ([6]; WT mice, S6Ki 10 days): 32%; Ras level in trunk blood, average (+/-SD) ([6]; WT mice, S6Ki 10 days, N=3): 0.62±0.20
